For this test, the target named is T1, human cannabinoid CB2 receptor (Homo sapiens, UniProt P34972).
T1 construct: expressed in transfected cells; host or cells: Saccharomyces cerevisiae strain MMY23 (cassette integrated at the ura3 locus, GPD promoter)
Nature of the test: Cannabinoid CB2 receptor agonist activity, yeast reporter assay. It is filed as cell-based. The note with it: for Emax: read-out: efficacy (Emax) at the cloned human cannabinoid CB2 receptor. As for the experimental part: The cannabinoid CB2 receptor agonist activity of the compounds of formula (I) was determined in accordance with the following experimental method.
Yeast (Saccharomyces cerevisiae) cells expressing the human cannabinoid CB2 receptor were generated by integration of an expression cassette into the ura3 chromosomal locus of yeast strain MMY23. This cassette consisted of DNA sequence encoding the human CB2 receptor flanked by the yeast GPD promoter to the 5′ end of CB2 and a yeast transcriptional terminator sequence to the 3′ end of CB2. MMY23 expresses a yeast/mammalian chimeric G-protein alpha subunit in which the C-terminal 5 amino acids of Gpa1 are replaced with the C-terminal 5 amino acids of human Gαi3 (as described in Brown et al. (2000), Yeast 16:11-22).
Agonists were prepared as 10 mM stocks in DMSO. […] Agonist solutions in DMSO (1% final assay volume) were transferred into black, clear bottom, microtitre plates from NUNC (96- or 384-well). Cells were suspended at a density of 0.2 OD600/ml in SC media lacking histidine, uracil, tryptophan, adenine and leucine and supplemented with 10 mM 3-aminotriazole, 0.1M sodium phosphate pH 7.0, and […] fluorescein di-β-D-glucopyranoside (FDGlu). […] Fluorescence was plotted against compound concentration and iteratively curve fitted using a four parameter fit to generate a concentration effect value. Efficacy (Emax) was calculated from the equation
Equieffective molar ratio (EMR) values were calculated from the equation

Each structure is given as a SMILES string. pEC50: −log10 of the molar value.

T1 sequence (P34972 whole entry): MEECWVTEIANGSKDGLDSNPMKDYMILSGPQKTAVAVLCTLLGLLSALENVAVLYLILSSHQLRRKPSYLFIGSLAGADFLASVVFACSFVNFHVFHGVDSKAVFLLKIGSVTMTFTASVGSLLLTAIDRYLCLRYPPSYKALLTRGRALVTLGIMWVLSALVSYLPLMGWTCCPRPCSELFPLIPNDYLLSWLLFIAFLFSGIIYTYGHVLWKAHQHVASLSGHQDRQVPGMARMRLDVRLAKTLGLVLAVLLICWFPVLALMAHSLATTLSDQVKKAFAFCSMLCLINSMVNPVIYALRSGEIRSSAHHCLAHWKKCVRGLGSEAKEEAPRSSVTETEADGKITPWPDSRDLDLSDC

Consider `Cc1cc(Nc2cc(C3CC3)c(C(=O)NCC3CCOCC3)cn2)ccc1Br` [Example 110, 6-(4-Bromo-3-methyl-phenylamino)-4-cyclopropyl-N-(tetrahydro-pyran-4-ylmethyl)-nicotinamide], for which the negative logarithm of the EC50 (pEC50) was 6.00 to 6.52 and the maximum response (Emax) was over 50%.

`Cc1ccc(Nc2cc(C3CC3)c(C(=O)NCC3CCOCC3)cn2)cc1F` [Example 111, 4-Cyclopropyl-6-(3-fluoro-4-methyl-phenylamino)-N-(tetrahydro-pyran-4-ylmethyl)-nicotinamide]: the pEC50 was 6.00 to 6.52 and the Emax was over 50%.

Turning to `Cc1ccc(Nc2cc(C3CC3)c(C(=O)NCC3CCOCC3)cn2)cc1Cl` [Example 112, 6-(3-Chloro-4-methyl-phenylamino)-4-cyclopropyl-N-(tetrahydro-pyran-4-ylmethyl)-nicotinamide], the pEC50 was 6.00 to 6.52 and the Emax is over 50%.

For `O=C(NCC1CCOCC1)c1cnc(Nc2ccc(F)c(F)c2)cc1C1CC1` [Example 113, 4-Cyclopropyl-6-(3,4-difluoro-phenylamino)-N-(tetrahydro-pyran-4-ylmethyl)-nicotinamide], the pEC50 is 6.00 to 6.52 and the Emax was over 50%.

Take `Cc1ccc(C(F)(F)F)cc1Nc1cc(C2CC2)c(C(=O)NCC2CCOCC2)cn1` [Example 114, 4-Cyclopropyl-6-(2-methyl-5-trifluoromethyl-phenylamino)-N-(tetrahydro-pyran-4-ylmethyl)-nicotinamide]: the pEC50 was 6.00 to 6.52 and the Emax is over 50%.

On to `COc1cccc(Nc2cc(C3CC3)c(C(=O)NCC3CCC3)cn2)c1` [Example 115, N-Cyclobutylmethyl-4-cyclopropyl-6-(3-methoxy-phenylamino)-nicotinamide], for which the pEC50 is 6.00 to 6.52 and the Emax was over 50%.

Take `O=C(NCC1CCC1)c1cnc(Nc2ccc(F)cc2Cl)cc1C1CC1` [Example 116]: the pEC50 was 6.00 to 6.52 and the Emax was over 50%.

Take `Cc1cccc(Nc2cc(C3CC3)c(C(=O)NCC3CCCC3)cn2)c1` [Example 117, N-Cyclopentylmethyl-4-cyclopropyl-6-(3-methyl-phenylamino)-nicotinamide]: the pEC50 is 6.00 to 6.52 and the Emax was over 50%.

As to `COc1cccc(Nc2cc(C3CC3)c(C(=O)NCC3CCCC3)cn2)c1` [Example 118, N-Cyclopentylmethyl-4-cyclopropyl-6-(3-methoxy-phenylamino)-nicotinamide], the pEC50 is 6.00 to 6.52 and the Emax is over 50%.

For the molecule `O=C(NCC1CCCC1)c1cnc(Nc2cccc(Cl)c2Cl)cc1C1CC1` [Example 119, N-Cyclopentylmethyl-4-cyclopropyl-6-(2,3-dichloro-phenylamino)-nicotinamide], the pEC50 was 6.00 to 6.52 and the Emax is over 50%.

On to `O=C(NCC1CCCC1)c1cnc(Nc2ccc(C(F)(F)F)c(Cl)c2)cc1C1CC1` [Example 120, 6-(3-Chloro-4-trifluoromethyl-phenylamino)-N-cyclopentylmethyl-4-cyclopropyl-nicotinamide], for which the pEC50 was 6.00 to 6.52 and the maximal effect (Emax) is over 50%.

With `N#Cc1ccc(Nc2cc(C3CC3)c(C(=O)NCC3CCOCC3)cn2)c(F)c1` [Example 121, 6-(4-Cyano-2-fluoro-phenylamino)-4-cyclopropyl-N-(tetrahydro-pyran-4-ylmethyl)-nicotinamide], the pEC50 was 6.00 to 6.52 and the Emax is over 50%.

For `O=C(NCC1CCCC1)c1cnc(Nc2cccc(F)c2F)cc1C1CC1` [Example 122, N-Cyclopentylmethyl-4-cyclopropyl-6-(2,3-difluoro-phenylamino)-nicotinamide], the pEC50 was 6.00 to 6.52 and the Emax was over 50%.

In the case of `O=C(NCC1CCC1)c1cnc(Nc2ccc(F)c(C(F)(F)F)c2)cc1C1CC1` [Example 123, N-Cyclobutylmethyl-4-cyclopropyl-6-(4-fluoro-3-trifluoromethyl-phenylamino)-nicotinamide], the pEC50 was 6.00 to 6.52 and the Emax was over 50%.

Regarding `O=C(NCC1CCOCC1)c1ccc(Nc2cccc(Cl)c2)nc1C1CC1` [Example 124, 6-(3-Chloro-phenylamino)-2-cyclopropyl-N-(tetrahydro-pyran-4-ylmethyl)-nicotinamide], the negative logarithm of the EC50 (pEC50) is 6.00 to 6.52 and the Emax was over 50%.

For the molecule `O=C(NCC1CCOCC1)c1ccc(Nc2cccc(C(F)(F)F)c2)nc1C1CC1` [Example 125, 2-Cyclopropyl-N-(tetrahydro-pyran-4-ylmethyl)-6-(3-trifluoromethyl-phenylamino)-nicotinamide], the pEC50 was 6.00 to 6.52 and the Emax is over 50%.

For `O=C(NCC1CCOCC1)c1ccc(Nc2cccc(Br)c2)nc1C1CC1` [Example 126, 6-(3-Bromo-phenylamino)-2-cyclopropyl-N-(tetrahydro-pyran-4-ylmethyl)-nicotinamide], the pEC50 is 6.00 to 6.52 and the Emax is over 50%.

Take `O=C(NCC1CCOCC1)c1ccc(Nc2cccc(OC(F)(F)F)c2)nc1C1CC1` [Example 127, 2-Cyclopropyl-N-(tetrahydro-pyran-4-ylmethyl)-6-(3-trifluoromethoxy-phenylamino)-nicotinamide]: the pEC50 was 6.00 to 6.52 and the Emax is over 50%.

(Values after US20080280952A1 (priority 2004, published 2008).)
